Where “and” joins values, the source holds several entries; their conditions need not be identical. Equal values may be shown once. Where only a bound is given, the exact number is not on record here.

For test [1], the system named is non-tumorigenic MCF-10A breast epithelial cells. In words: 2D culture cell growth, MCF-10A normal control. In kind it is cell-based. The method, then:
(§1) Therefore, the anti-cancer activity of CNBDA was tested in breast cancer cells under 2-dimensional (culture plates), soft agar, and suspension cultures. Because SHP2 is an essential downstream mediator of receptor tyrosine kinase (RTK) signaling, including HER2 and HER1 [24, 25], breast cancer cells that harbor dysregulated RTK and SHP2 signaling were chosen for testing the effect of CNDBA. Accordingly, the BT474 cell line that overexpress the human epidermal growth factor receptor 2 (HER2) and the MDA-MB468 cell line that overexpress HER1 (also known as EGFR) were used. The non-transformed MCF-10A breast epithelial cells were used as a “normal” control in these studies. The BT474 cells were grown in RPMI 1640, while the MDA-MB468 cells were grown in Dulbecco's Modified Eagle's Medium (DMEM), both supplemented with 10% fetal calf serum. On the other hand, the MCF-10A cells were grown in DMEM supplemented with […] recombinant human insulin, 20 ng/ml EGF (PeproTech), […] hydrocortisone, 100 ng/ml cholera toxin (Sigma) and 5% horse serum, as described previously. All cells were grown in a 37° C. incubator supplied with 5% CO2. […] In the HER2-positive BT474 breast cancer cell line, CNBDA suppressed cell growth at the lowest concentration used (100 ng/ml) as determined by absence of gradual increase in cell density (FIG. 6A). […]

Test [2] deals with MDA-MB468 cells. As to the kind of experiment: mammosphere formation in suspension culture, MDA-MB468. It is filed as cell-based. The method, then: (§2) Finally, the effect of CNBDA on the above mentioned breast cancer cells (BT474 and MDA-MB468) was evaluated by the mammosphere formation assay in which cells with stem-like properties (including cancer stem cells) only can survive and form these structures. Briefly, cells were cultured in ultra-low adherence plates (1×10^6 cells per 6 cm plate) in a medium containing serum-free DMEM, 1 μg/ml hydrocortisone, 10 μg/ml insulin, 10 ng/ml EGF, 10 ng/ml FGF, 5 ng/ml heparin, and B27 (Invitrogen). After 10 days of culture, primary mammosphere formation was determined by observation under a microscope at which time pictures of mammospheres was taken at 4×objective. Next, the primary mammospheres were collected by centrifugation at 1000 rpm, dissociated to single cells by trypsination and pipetting, and re-cultured under same conditions to observe effect of SHP2 silencing on secondary mammosphere-forming capacity. Pictures of secondary cultures also were taken after 10 days at 4×objective. […] Similar to the anchorage-independent growth studies, the concentration of CNBDA that led to exhaustion of mammosphere formation was 4-5 fold lower than the amount needed for cell killing in the 2D cultures.
(§3) Note than the number and size of mammospheres decreases as the concentration of CNBDA increases.

Test [3] relates to HER2-positive BT474 breast cancer cell line. As to the kind of experiment: 2D culture cell growth and cell death, BT474. The note with it: BT474, 2D culture. It is filed as cell-based. As for the experimental part:
Therefore, the anti-cancer activity of CNBDA was tested in breast cancer cells under 2-dimensional (culture plates), soft agar, and suspension cultures. Because SHP2 is an essential downstream mediator of receptor tyrosine kinase (RTK) signaling, including HER2 and HER1 [24, 25], breast cancer cells that harbor dysregulated RTK and SHP2 signaling were chosen for testing the effect of CNDBA. Accordingly, the BT474 cell line that overexpress the human epidermal growth factor receptor 2 (HER2) and the MDA-MB468 cell line that overexpress HER1 (also known as EGFR) were used. The non-transformed MCF-10A breast epithelial cells were used as a “normal” control in these studies. The BT474 cells were grown in RPMI 1640, while the MDA-MB468 cells were grown in Dulbecco's Modified Eagle's Medium (DMEM), both supplemented with 10% fetal calf serum. On the other hand, the MCF-10A cells were grown in DMEM supplemented with […] recombinant human insulin, 20 ng/ml EGF (PeproTech), […] hydrocortisone, 100 ng/ml cholera toxin (Sigma) and 5% horse serum, as described previously. All cells were grown in a 37° C. incubator supplied with 5% CO2. In the 2D culture studies, cells were treated with vehicle alone (PBS: phosphate buffered saline) or three different concentration of CNBDA. When the density of cells reached approximately 30%, each plate was treated with vehicle alone (placebo) or the indicated concentrations of CNBDA. In the HER2-positive BT474 breast cancer cell line, CNBDA suppressed cell growth at the lowest concentration used (100 ng/ml) as determined by absence of gradual increase in cell density (FIG. 6A). But, at the 72 hour time point, it was possible to see signs of cell death as evidenced by shrinkage in the extended patchy growth property of these cells. At 500 ng/ml and higher concentrations, CNBDA induced cell death within 24 hours which became more evident gradually.
At the lowest concentration used, CNBDA was able to block cell growth and induction of cell death was apparent only after 48 hours. […]

In test [4] the target is T1, PTP domain of SHP1 fused to GST (Homo sapiens, UniProt P29350).
T1 construct: The PTP domains of SHP2 and SHP1 fused to glutathione-S-transferase (GST-PTPs) were expressed in E. coli; GST (N); made in house; host or cells: E. coli
T1 sequence (P29350 244-515 limits assumed): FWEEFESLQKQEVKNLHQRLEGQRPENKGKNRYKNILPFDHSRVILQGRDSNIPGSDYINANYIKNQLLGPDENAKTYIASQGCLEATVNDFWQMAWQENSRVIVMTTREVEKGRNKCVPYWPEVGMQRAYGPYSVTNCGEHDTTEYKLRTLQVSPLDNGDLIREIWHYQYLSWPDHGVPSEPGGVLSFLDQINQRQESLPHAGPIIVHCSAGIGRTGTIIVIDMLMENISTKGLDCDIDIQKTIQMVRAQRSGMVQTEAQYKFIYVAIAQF
As to the kind of experiment: phosphatase assay with DiFMUP substrate, GST-PTP of SHP1. In kind it is biochemical. The note with it: DiFMUP 20 μM, 30° C., pH7.0. As for the experimental part:
(§4) The effect of CNBD on the SHP2 phosphatase activity was tested using the artificial substrate DiFMUP (6,8-difluoro-4-methylumbelliferyl) at a concentration of 20 μM, which is commonly used in phosphatase assays. CNBDA concentrations of 1.94 mM, 194 μM, 97 μM, 48.5 μM, 24.25 μM, 19.4 μM, 12.9 μM, and 1.94 μM in water were used in the analysis. The PTP domains of SHP2 and SHP1 fused to glutathione-S-transferase (GST-PTPs) were expressed in E. coli using a standard protein expression protocol and purified on glutathione sepharose beads as recommended by the manufacturer (Pharmacia), and quantified by measuring absorbance at 280 nm and comparison with BSA standards. Reactions were performed at 30° C. in 100 μl volume of PTPase buffer containing 25 mM Tris-HCl pH7.0, 50 mM NaCl, 2 mM EDTA and 10 mM dithiothreitol (DTT). Change in absorbance (production of DiFMU, dephosphorylated form of DiFMUP) was followed in a plate-reading visible spectrophotometer at 450 nm.

In test [5] the test system is BT474 cells. In words: soft agar anchorage-independent growth, BT474. It is filed as cell-based. As for the experimental part:
(§5) Next, the efficacy of CNBDA was evaluated by the soft agar assay, a technique commonly used to determine ability of cells to grow in an anchorage-independent manner, one of the hall marks of a cancer cell. The HER2-positive BT474 and the HER1-positive MDA-MB468 cells were seeded in soft agar, treated with placebo or CNBDA at variable concentrations, cultured for 10 days, and their ability to form colonies was monitored by observation under a microscope. […] While the placebo-treated BT474 and MDA-MB468 cells formed larger and numerous colonies in 10 days, the CNBDA-treated counterparts formed smaller and fewer ones (FIG. 6B). In addition, the concentration of CNBDA that abolished colony formation in soft agar was at least 4-fold lower than the amount that caused cell death in 2D cultures in both cell lines (compare FIGS. 6A and 6B).
(§6) Note than the number and size of colonies decreases as the concentration of CNBDA increases. Also note that the concentration of CNBDA that abolished colony formation in the HER2-positive BT474 breast cancer cell line is 2-fold lower than the amount used in the MDA-MB468 cells.

Test [6] has as its target T2, PTP domain of SHP2 fused to GST (Homo sapiens, UniProt Q06124).
T2 construct: The PTP domains of SHP2 and SHP1 fused to glutathione-S-transferase (GST-PTPs) were expressed in E. coli; GST (N); made in house; host or cells: E. coli
T2 sequence (Q06124 247-517 limits assumed): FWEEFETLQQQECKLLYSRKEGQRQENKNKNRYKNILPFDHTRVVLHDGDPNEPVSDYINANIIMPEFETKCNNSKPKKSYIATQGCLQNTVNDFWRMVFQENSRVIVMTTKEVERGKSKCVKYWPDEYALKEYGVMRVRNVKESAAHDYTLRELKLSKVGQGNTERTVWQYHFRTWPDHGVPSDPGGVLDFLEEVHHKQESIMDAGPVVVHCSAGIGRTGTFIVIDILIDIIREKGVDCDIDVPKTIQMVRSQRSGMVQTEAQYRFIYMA
As to the kind of experiment: phosphatase assay with DiFMUP substrate, GST-PTP of SHP2. In kind it is biochemical. The method, then:
as §4

Test [7] has as its system BT474 cells. As to the kind of experiment: mammosphere formation in suspension culture, BT474. It is filed as cell-based. As for the experimental part: as §2, §3
In test [8] the test system is MDA-MB468 cells. In words: soft agar anchorage-independent growth, MDA-MB468. It is filed as cell-based. As for the experimental part:
as §5, §6

The test system of test [9] is EGFR-amplified MDA-MB468 basal-like breast cancer cell line. In words: 2D culture cell growth and cell death, MDA-MB468. In kind it is cell-based. To be noted: MDA-MB468, 2D culture. The method, then:
as §1

Take `CCCCCCCCCOc1c(CCCC(=O)O)cc(-c2ccc(C(=O)O)cc2)cc1CCCC(=O)O` [CNBDA]: the “effect on cell growth and cell death at the higher concentration used” value in [1] (6 μg/ml) is “did not cause a significant decrease in cell growth or induce cell death”. Also, the “effect on cell growth” value in [1] (2D culture) is “very little effect”. The “concentration exhausting mammosphere formation, fold lower than amount needed for cell killing in 2D cultures” value in the test on MDA-MB468 cells [2] (MDA-MB468) and with BT474 cells [7] (BT474) was 4-5 fold in each case. The mammosphere formation entry in the test with MDA-MB468 cells [2] (MDA-MB468, suspension culture, concentration dependent) was “suppressed mammosphere formation”; with BT474 cells [7] (BT474, suspension culture, concentration dependent), “suppressed mammosphere formation”. Also, the “concentration that induced cell death within 24 hours” value in [3] was not below 500 ng/mL. The “time at which cell death became apparent at the lowest concentration” value in [3] (100 ng/ml) is 72 h and > 48 h. The “concentration that suppressed cell growth (lowest used)” value in test [3] (absence of increase in cell density) stood at 100 ng/mL. Moreover, the concentration for half-maximal inhibition (IC50) (commonly the concentration needed to halve the response being measured) in [4] is 122 µM; in test [6] (DiFMUP 20 μM, 30° C., pH7.0) it was 12 µM. Moreover, the “concentration abolishing colony formation, fold lower than amount causing cell death in 2D culture” value with BT474 cells [5] (BT474) and with MDA-MB468 cells [8] (MDA-MB468) was “at least 4 fold” throughout. In addition, the “colony formation in soft agar” value in the test on BT474 cells [5] (BT474, 10 days, concentration dependent) is “suppression of colony formation”; with MDA-MB468 cells [8] (MDA-MB468, 10 days, concentration dependent), “suppression of colony formation”. Further, the “concentration abolishing colony formation in BT474, fold lower than in MDA-MB468” value in the test on BT474 cells [5] (soft agar) turned out to be 2 fold. Besides, the “mode of SHP2 inhibition” value in test [6] is “competitive SHP2 inhibitor”. Besides, in [6] (from IC50 values), the “selectivity for SHP2 over SHP1” value is 10 fold. Also, in the test on BT474 cells [7] (suspension culture), the “concentration abolishing mammosphere formation in BT474, fold lower than in MDA-MB468” value is 2 fold. Besides, the “concentration showing effect, relative to BT474 cells” value in test [9] is given as “double the concentration”. Moreover, in [9] (pilot studies), the “minimum concentration needed to induce cell death after 48 hours” value came to 1 µg/mL.

These data come from patent publication US9932288B2, “Chemical compound for inhibition of SHP2 function and for use as an anti-cancer agent” (West Virginia University, priority 2015, dated 2018).
